Measurements from article PMC7561186, “Rational design of balanced dual-targeting antibiotics with limited resistance” (PLoS Biology, 2020).
In brackets after ≈: the same amount, converted by molar mass. Where two headings read alike, the source gives them in different places.

Test system: S. aureus clinical isolates
Assay: microbe, parasite or virus in culture
Assay type: cell-based
Settings: Staphylococcus aureus, read-out: MIC

Compound: Cc1onc(-c2ccccc2)c1C(=O)N[C@@H]1C(=O)N2[C@@H]1SC(C)(C)[C@@H]2C(=O)O [Oxacillin]
- MIC (ATCC 29213 / MSSA, S. aureus ATCC 29213, MSSA / VSSA, test date 2018-10-25 (three repeat lines)): 0.25 µg/mL (≈ 0.623 µM)
- MIC (ATCC 29213 / MSSA, S. aureus ATCC 29213, MSSA / VSSA, test date 2018-11-07): 0.25 µg/mL (≈ 0.623 µM)
- MIC (MRSA / NRS 3 / VISA, S. aureus IHMA 1308243, NRS3, MRSA / VISA): > 64 µg/mL
- MIC (MRSA / NRS 4 / VISA, S. aureus IHMA 649380, NRS4, MRSA / VISA): > 64 µg/mL
- MIC (MRSA / NRS 18 / VISA, S. aureus IHMA 649386, NRS18, MRSA / VISA): 64 µg/mL (≈ 159 µM)
- MIC (MRSA / NRS 19 / VISA, S. aureus IHMA 649387, NRS19, MRSA / VISA): > 64 µg/mL
- MIC (MRSA / NRS 21 / VISA, S. aureus IHMA 649388, NRS21, MRSA / VISA): > 64 µg/mL
- MIC (MRSA / NRS 22 / USA600 / VISA, S. aureus IHMA 649389, NRS22, MRSA / VISA, USA600): 16 µg/mL (≈ 39.9 µM)
- MIC (MRSA / NRS 23 / VISA, S. aureus IHMA 649390, NRS23, MRSA / VISA): > 64 µg/mL
- MIC (MRSA / NRS 24 / VISA, S. aureus IHMA 649391, NRS24, MRSA / VISA): > 64 µg/mL
- MIC (MRSA / NRS 26, S. aureus IHMA 649392, NRS26, MRSA / VSSA): > 64 µg/mL
- MIC (MRSA / NRS 27 / VISA, S. aureus IHMA 1308248, NRS27, MRSA / VISA): > 64 µg/mL
- MIC (MRSA / NRS 29 / VISA, S. aureus IHMA 1308250, NRS29, MRSA / VISA): > 64 µg/mL
- MIC (MRSA / NRS 37 / VISA, S. aureus IHMA 1308251, NRS37, MRSA / VISA): 8 µg/mL (≈ 19.9 µM)
- MIC (MRSA / NRS 54, S. aureus IHMA 1308253, NRS54, MRSA / VSSA* (*Expected VAN intermediate, confirmed VAN susceptible twice), test date 2018-11-07): > 64 µg/mL
- MIC (MRSA / NRS 56 / VISA, S. aureus IHMA 1308254, NRS56, MRSA / VISA): > 64 µg/mL
- MIC (MRSA / USA100 / VRSA, S. aureus IHMA 672230, VRS1, MRSA / VRSA, USA100): > 64 µg/mL
- MIC (MRSA / USA100 / VRSA, S. aureus IHMA 672231, VRS2, MRSA / VRSA, USA100): > 64 µg/mL
- MIC (MRSA / USA100 / VRSA, S. aureus IHMA 672234, VRS4, MRSA / VRSA, USA100): > 64 µg/mL
- MIC (MRSA / USA100 / VRSA, S. aureus IHMA 672235, VRS5, MRSA / VRSA, USA100): > 64 µg/mL
- MIC (MRSA / USA100 / VRSA, S. aureus IHMA 672237, VRS7, MRSA / VRSA, USA100): > 64 µg/mL
- MIC (MRSA / USA100 / VRSA, S. aureus IHMA 672238, VRS8, MRSA / VRSA, USA100): > 64 µg/mL
- MIC (MRSA / USA100 / VRSA, S. aureus IHMA 672239, VRS9, MRSA / VRSA, USA100): > 64 µg/mL
- MIC (MRSA / USA100 / VRSA, S. aureus IHMA 1308256, VRS10, MRSA / VRSA, USA100): > 64 µg/mL
- MIC (MRSA / USA100 / VRSA, S. aureus IHMA 1308258, VRS11b, MRSA / VRSA, USA100): 16 µg/mL (≈ 39.9 µM)
- MIC (MRSA / USA800 / VRSA, S. aureus IHMA 672233, VRS3b, MRSA / VRSA, USA800): > 64 µg/mL
- MIC (MRSA, S. aureus IHMA 1569509, MRSA / VSSA): > 64 µg/mL
- MIC (MRSA, S. aureus IHMA 1575268, MRSA / VSSA): > 64 µg/mL
- MIC (MRSA, S. aureus IHMA 1575629, MRSA / VSSA): 64 µg/mL (≈ 159 µM)
- MIC (MRSA, S. aureus IHMA 1577820, MRSA / VSSA): 32 µg/mL (≈ 79.7 µM)
- MIC (MRSA, S. aureus IHMA 1580300, MRSA / VSSA): > 64 µg/mL
- MIC (MRSA, S. aureus IHMA 1580940, MRSA / VSSA): 32 µg/mL (≈ 79.7 µM)
- MIC (MRSA, S. aureus IHMA 1582100, MRSA / VSSA): > 64 µg/mL
- MIC (MRSA, S. aureus IHMA 1583795, MRSA / VSSA): > 64 µg/mL
- MIC (MRSA, S. aureus IHMA 1584223, MRSA / VSSA): > 64 µg/mL
- MIC (MRSA, S. aureus IHMA 1585316, MRSA / VSSA): > 64 µg/mL
- MIC (MRSA, S. aureus IHMA 1586780, MRSA / VSSA): 32 µg/mL (≈ 79.7 µM)
- MIC (MRSA, S. aureus IHMA 1587322, MRSA / VSSA): > 64 µg/mL
- MIC (MRSA, S. aureus IHMA 1588127, MRSA / VSSA): 32 µg/mL (≈ 79.7 µM)
- MIC (MRSA, S. aureus IHMA 1591462, MRSA / VSSA): 32 µg/mL (≈ 79.7 µM)
- MIC (MRSA, S. aureus IHMA 1592755, MRSA / VSSA): > 64 µg/mL
- MIC (MRSA, S. aureus IHMA 1592776, MRSA / VSSA): 32 µg/mL (≈ 79.7 µM)
- MIC (MRSA, S. aureus IHMA 1597106, MRSA / VSSA): > 64 µg/mL
- MIC (MRSA, S. aureus IHMA 1602095, MRSA / VSSA): 32 µg/mL (≈ 79.7 µM)
- MIC (MRSA, S. aureus IHMA 1611170, MRSA / VSSA): 16 µg/mL (≈ 39.9 µM)
- MIC (MRSA, S. aureus IHMA 1611612, MRSA / VSSA): > 64 µg/mL
- MIC (MRSA, S. aureus IHMA 1612228, MRSA / VSSA): > 64 µg/mL
- MIC (MRSA, S. aureus IHMA 1620441, MRSA / VSSA): > 64 µg/mL
- MIC (MRSA, S. aureus IHMA 1621638, MRSA / VSSA): 32 µg/mL (≈ 79.7 µM)
- MIC (MRSA, S. aureus IHMA 1622252, MRSA / VSSA): > 64 µg/mL
- MIC (MRSA, S. aureus IHMA 1622527, MRSA / VSSA): 32 µg/mL (≈ 79.7 µM)
- MIC (MRSA, S. aureus IHMA 1666371, MRSA / VSSA): 16 µg/mL (≈ 39.9 µM)
- MIC (MRSA, S. aureus IHMA 1695391, MRSA / VSSA): > 64 µg/mL
- MIC (MRSA, S. aureus IHMA 1703428, MRSA / VSSA): 64 µg/mL (≈ 159 µM)
- MIC (MRSA, S. aureus IHMA 1720350, MRSA / VSSA): 32 µg/mL (≈ 79.7 µM)
- MIC (MRSA, S. aureus IHMA 1732989, MRSA / VSSA): > 64 µg/mL
- MIC (MRSA, S. aureus IHMA 1742231, MRSA / VSSA): > 64 µg/mL
- MIC (MRSA, S. aureus IHMA 1766357, MRSA / VSSA): 32 µg/mL (≈ 79.7 µM)
- MIC (MSSA / NRS 12 / VISA, S. aureus IHMA 1308244, NRS12, MSSA / VISA): 0.25 µg/mL (≈ 0.623 µM)
- MIC (MSSA / NRS 13 / VISA, S. aureus IHMA 1308245, NRS13, MSSA / VISA): 0.5 µg/mL (≈ 1.25 µM)
- MIC (MSSA / NRS 14 / VISA, S. aureus IHMA 1308246, NRS14, MSSA / VISA): 0.25 µg/mL (≈ 0.623 µM)
- MIC (MSSA / NRS 17 / VISA, S. aureus IHMA 1308247, NRS17, MSSA / VISA): 2 µg/mL (≈ 4.98 µM)
- MIC (MSSA / NRS 28 / VISA, S. aureus IHMA 1308249, NRS28, MSSA / VISA): 2 µg/mL (≈ 4.98 µM)
- MIC (MSSA / NRS 52, S. aureus IHMA 1308252, NRS52, MSSA / VSSA* (*Expected VAN intermediate, confirmed VAN susceptible twice), test date 2018-11-07): 0.12 µg/mL (≈ 0.299 µM)
- MIC (MSSA / USA100 / VRSA, S. aureus IHMA 672236, VRS6, MSSA / VRSA, USA100): 2 µg/mL (≈ 4.98 µM)
- MIC (MSSA, S. aureus IHMA 1563826, MSSA / VSSA): 0.25 µg/mL (≈ 0.623 µM)
- MIC (MSSA, S. aureus IHMA 1565492, MSSA / VSSA): 0.25 µg/mL (≈ 0.623 µM)
- MIC (MSSA, S. aureus IHMA 1569499, MSSA / VSSA): 1 µg/mL (≈ 2.49 µM)
- MIC (MSSA, S. aureus IHMA 1569754, MSSA / VSSA): 1 µg/mL (≈ 2.49 µM)
- MIC (MSSA, S. aureus IHMA 1574202, MSSA / VSSA): 2 µg/mL (≈ 4.98 µM)
- MIC (MSSA, S. aureus IHMA 1575652, MSSA / VSSA): 1 µg/mL (≈ 2.49 µM)
- MIC (MSSA, S. aureus IHMA 1575779, MSSA / VSSA): 0.5 µg/mL (≈ 1.25 µM)
- MIC (MSSA, S. aureus IHMA 1576329, MSSA / VSSA): 0.5 µg/mL (≈ 1.25 µM)
- MIC (MSSA, S. aureus IHMA 1577800, MSSA / VSSA): 0.5 µg/mL (≈ 1.25 µM)
- MIC (MSSA, S. aureus IHMA 1578560, MSSA / VSSA): 0.5 µg/mL (≈ 1.25 µM)
- MIC (MSSA, S. aureus IHMA 1580233, MSSA / VSSA): 0.5 µg/mL (≈ 1.25 µM)
- MIC (MSSA, S. aureus IHMA 1580925, MSSA / VSSA): 0.5 µg/mL (≈ 1.25 µM)
- MIC (MSSA, S. aureus IHMA 1580955, MSSA / VSSA): 0.5 µg/mL (≈ 1.25 µM)
- MIC (MSSA, S. aureus IHMA 1582586, MSSA / VSSA): 0.5 µg/mL (≈ 1.25 µM)
- MIC (MSSA, S. aureus IHMA 1582691, MSSA / VSSA): 0.25 µg/mL (≈ 0.623 µM)
- MIC (MSSA, S. aureus IHMA 1584230, MSSA / VSSA): 0.5 µg/mL (≈ 1.25 µM)
- MIC (MSSA, S. aureus IHMA 1587279, MSSA / VSSA): 0.25 µg/mL (≈ 0.623 µM)
- MIC (MSSA, S. aureus IHMA 1591459, MSSA / VSSA): 0.25 µg/mL (≈ 0.623 µM)
- MIC (MSSA, S. aureus IHMA 1592749, MSSA / VSSA): 0.25 µg/mL (≈ 0.623 µM)
- MIC (MSSA, S. aureus IHMA 1592751, MSSA / VSSA): 0.5 µg/mL (≈ 1.25 µM)
- MIC (MSSA, S. aureus IHMA 1594297, MSSA / VSSA): 0.5 µg/mL (≈ 1.25 µM)
- MIC (MSSA, S. aureus IHMA 1597120, MSSA / VSSA): 0.25 µg/mL (≈ 0.623 µM)
- MIC (MSSA, S. aureus IHMA 1597125, MSSA / VSSA): 0.5 µg/mL (≈ 1.25 µM)
- MIC (MSSA, S. aureus IHMA 1599157, MSSA / VSSA): 0.5 µg/mL (≈ 1.25 µM)
- MIC (MSSA, S. aureus IHMA 1599506, MSSA / VSSA): 0.5 µg/mL (≈ 1.25 µM)
- MIC (MSSA, S. aureus IHMA 1602078, MSSA / VSSA): 1 µg/mL (≈ 2.49 µM)
- MIC (MSSA, S. aureus IHMA 1604586, MSSA / VSSA): 0.5 µg/mL (≈ 1.25 µM)
- MIC (MSSA, S. aureus IHMA 1604609, MSSA / VSSA): 0.25 µg/mL (≈ 0.623 µM)
- MIC (MSSA, S. aureus IHMA 1609919, MSSA / VSSA): 0.25 µg/mL (≈ 0.623 µM)
- MIC (MSSA, S. aureus IHMA 1622864, MSSA / VSSA): 0.5 µg/mL (≈ 1.25 µM)
- MIC (MSSA, S. aureus IHMA 1626392, MSSA / VSSA): 0.5 µg/mL (≈ 1.25 µM)
- MIC (MSSA, S. aureus IHMA 1713793, MSSA / VSSA): 0.5 µg/mL (≈ 1.25 µM)
